Source: patent US20250092031A1, “RIPK3 INHIBITORS AND METHODS OF USE” (Momentum Therapeutics, Inc., priority 2023, published 2025)

Key:
[1] = system: Murine L929 cells; assay: Necroptosis inhibition assay in L929 cells (mTNFα + zVAD, Sytox Green); format: cell-based; conditions: Mus musculus, 10 ng/ml mTNFα and 20 μM zVAD, 6 hours, Sytox Green fluorescence
In short: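 Murine L929 cells, treated 48 h after seeding with 10 ng/ml mTNFα plus 20 μM zVAD and compound ([…]), 6 h at 37° C. Necroptosis read by Sytox Green fluorescence (500ex/530em), scaled between 0.1% DMSO and TNFα+zVAD wells; IC50 from inhibition curves.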

[2] = system: Human HT-29 cells; assay: Necroptosis inhibition assay in HT-29 cells (hTNFα + zVAD + SMAC mimetic, Sytox Green/Hoechst); format: cell-based; conditions: 10 ng/ml hTNFα, 20 μM zVAD and 100 nM SMAC mimetic, 6 hours, Sytox/Hoechst positive cells, read-out: HT29 necroptosis inhibition IC50
Protocol: Human HT-29 cells (ATCC-HTB-38) were seeded at 10,000 cells/well in a 96-well plate. Cells were treated 48 hours after seeding with 10 ng/ml hTNFα (R&D Systems), 20 μM zVAD (ChemShuttle) and 100 nM SMAC mimetic (MedChem Express) in the presence of different concentrations of compounds ranging from […] to 0.01 μM. Cells treated with 0.1% DMSO or cells treated with TNFα+zVAD+SMAC mimetic were used as control and vehicle respectively.
Assay plates containing cells were incubated for 6 hours at 37° C. and 5% CO2. Necroptosis was assessed using Sytox Green Nucleic Acid Stain (Invitrogen) and Hoechst staining. After incubation, 100 μL of Sytox dye at 2 μM (2×) diluted in HBSS 1× was added to each well. At the same time, Hoechst stain is added to a final concentration of 10 μM and incubated for 15 min at room temperature. Images were taken for Sytox and Hoechst using the Cytation 5 microplate reader with DAPI and GFP filter cubes (Biotek). Sytox and Hoechst positive cells were counted with CellProfiler software.
Percentage of necroptosis inhibition was calculated as the percent compared to control and vehicle conditions which correspond to 100% and 0% respectively. The half-maximum necroptosis inhibition (IC50) levels were calculated using GraphPad Prism software and are shown in Table 3 (NT represents compound not tested).

[3] = target: T1, RIPK3 (Homo sapiens, UniProt Q9Y572); assay: RIPK3 kinase assay (radiometric HotSpot, Reaction Biology Corporation); format: biochemical
T1 construct: purchased Reaction Biology Corporation (RBC), Malvern, USA (contract assay service)
Protocol: The assays were performed in Reaction Biology Corporation (RBC), Malvern, USA. Compounds were diluted with DMSO to a final stock concentration of 10 mM and then were tested in a 10-dose IC50 mode with a 3-fold serial dilution starting at […]. All the reactions were carried out at 10 μM ATP and MBP 20 μM as substrates. RIPK3 activity was determined using radiometric HotSpot™ kinase assay protocol and IC50 values were calculated use GraphPad Prism software.

T1 sequence (Q9Y572 whole entry): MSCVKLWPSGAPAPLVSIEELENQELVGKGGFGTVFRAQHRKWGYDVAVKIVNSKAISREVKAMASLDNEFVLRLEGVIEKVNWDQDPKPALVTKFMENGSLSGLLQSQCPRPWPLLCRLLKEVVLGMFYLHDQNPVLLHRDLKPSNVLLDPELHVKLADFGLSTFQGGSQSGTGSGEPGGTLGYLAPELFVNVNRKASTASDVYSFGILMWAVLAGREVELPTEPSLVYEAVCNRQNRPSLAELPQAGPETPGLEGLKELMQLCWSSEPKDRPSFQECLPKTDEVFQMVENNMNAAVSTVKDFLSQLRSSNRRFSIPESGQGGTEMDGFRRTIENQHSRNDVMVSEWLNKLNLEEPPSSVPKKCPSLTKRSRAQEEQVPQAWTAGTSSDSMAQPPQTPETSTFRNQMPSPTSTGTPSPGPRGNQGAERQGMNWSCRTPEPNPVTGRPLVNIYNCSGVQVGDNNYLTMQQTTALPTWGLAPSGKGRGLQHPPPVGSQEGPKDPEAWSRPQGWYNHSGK

Compound: CN1CCN(Cc2ccc(-c3ccc4nccc(Nc5ccc6scnc6c5)c4c3)cc2)CC1 [Compound 1, N-(6-(4-((4-methylpiperazin-1-yl)methyl)phenyl)quinolin-4-yl)benzo[d]thiazol-5-amine]
- IC50 [1]: 341 nM
- IC50 [2]: 334 nM
- IC50 [3]: 2.58 nM

Compound: CN1CCN(Cc2ccc(-c3ccc4nccc(Nc5ccc6scnc6c5)c4c3)c(F)c2)CC1 [Compound 11, N-(6-(2-fluoro-4-((4-methylpiperazin-1-yl)methyl)phenyl)quinolin-4-yl)benzo[d]thiazol-5-amine]
- IC50 [1]: 333 nM
- IC50 [2]: 102 nM
- IC50 [3]: 1.29 nM

Compound: O=C1CN(Cc2ccc(-c3ccc4nccc(Nc5ccc6scnc6c5)c4c3)c(F)c2)CCN1 [Compound 12, 4-(4-(4-(benzo[d]thiazol-5-ylamino)quinolin-6-yl)-3-fluorobenzyl)piperazin-2-one]
- IC50 [1]: 776 nM
- IC50 [2]: 208 nM
- IC50 [3]: 1.67 nM

Compound: CN1CCN(Cc2ccc(-c3ccc4nccc(Nc5ccc6scnc6c5)c4c3)c(F)c2)CC1=O [Compound 13, 4-(4-(4-(benzo[d]thiazol-5-ylamino)quinolin-6-yl)-3-fluorobenzyl)-1-methylpiperazin-2-one]
- IC50 [1]: 1130 nM
- IC50 [2]: 317 nM
- IC50 [3]: 1.72 nM

Compound: Fc1cc(CN2CCCCC2)ccc1-c1ccc2nccc(Nc3ccc4scnc4c3)c2c1 [Compound 14, N-(6-(2-fluoro-4-(piperidin-1-ylmethyl)phenyl)quinolin-4-yl)benzo[d]thiazol-5-amine]
- IC50 [1]: 492 nM
- IC50 [2]: 565 nM
- IC50 [3]: 2.99 nM

Compound: CN1CCN(c2ccc(-c3ccc4nccc(Nc5ccc6scnc6c5)c4c3)cc2)CC1 [Compound 15, N-(6-(4-(4-methylpiperazin-1-yl)phenyl)quinolin-4-yl)benzo[d]thiazol-5-amine]
- IC50 [1]: 1190 nM
- IC50 [2]: > 1000 nM
- IC50 [3]: 3.57 nM

Compound: CN1CCN(Cc2ccc(-c3ccc4c(Nc5ccc6scnc6c5)ccnc4c3)cc2)CC1 [Compound 16, N-(7-(4-((4-methylpiperazin-1-yl)methyl)phenyl)quinolin-4-yl)benzo[d]thiazol-5-amine]
- IC50 [1]: 104 nM
- IC50 [2]: 158 nM
- IC50 [3]: 0.51 nM

Compound: OCCN1CCN(Cc2ccc(-c3ccc4nccc(Nc5ccc6scnc6c5)c4c3)c(F)c2)CC1 [Compound 17, 2-(4-(4-(4-(benzo[d]thiazol-5-ylamino)quinolin-6-yl)-3-fluorobenzyl)piperazin-1-yl)ethanol]
- IC50 [1]: 341 nM
- IC50 [2]: 97.1 nM
- IC50 [3]: 0.95 nM

Compound: CN1CCN(Cc2ccc(-c3ccc4nccc(Nc5ccc6scnc6c5)c4c3)cc2F)CC1 [Compound 21, N-(6-(3-fluoro-4-((4-methylpiperazin-1-yl)methyl)phenyl)quinolin-4-yl)benzo[d]thiazol-5-amine]
- IC50 [1]: < 10000 nM
- IC50 [3]: 1.51 nM

Compound: Fc1cc(CN2CCOCC2)ccc1-c1ccc2nccc(Nc3ccc4scnc4c3)c2c1 [Compound 22, N-(6-(2-fluoro-4-(morpholinomethyl)phenyl)quinolin-4-yl)benzo[d]thiazol-5-amine]
- IC50 [1]: 316 nM
- IC50 [2]: 327 nM
- IC50 [3]: 2.13 nM

Compound: Fc1cc(CN2CCCC2)ccc1-c1ccc2nccc(Nc3ccc4scnc4c3)c2c1 [Compound 23, N-(6-(2-fluoro-4-(pyrrolidin-1-ylmethyl)phenyl)quinolin-4-yl)benzo[d]thiazol-5-amine]
- IC50 [1]: 275 nM
- IC50 [2]: 302 nM
- IC50 [3]: 2.21 nM

Compound: CN1CCCN(Cc2ccc(-c3ccc4nccc(Nc5ccc6scnc6c5)c4c3)c(F)c2)CC1 [Compound 27, N-(6-(2-fluoro-4-((4-methyl-1,4-diazepan-1-yl)methyl)phenyl)quinolin-4-yl)benzo[d]thiazol-5-amine]
- IC50 [1]: 669 nM
- IC50 [2]: 168 nM
- IC50 [3]: 1.13 nM

Compound: CN1CCC(c2ccc(-c3ccc4nccc(Nc5ccc6scnc6c5)c4c3)cc2)CC1 [Compound 28, N-(6-(4-(1-methylpiperidin-4-yl)phenyl)quinolin-4-yl)benzo[d]thiazol-5-amine]
- IC50 [1]: 2590 nM
- IC50 [2]: > 10000 nM
- IC50 [3]: 3.47 nM

Compound: O=C(c1ccc(-c2ccc3c(Nc4ccc5scnc5c4)ccnc3c2)c(F)c1)N1CCOCC1 [Compound 244, (4-(4-(benzo[d]thiazol-5-ylamino)quinolin-7-yl)-3-fluorophenyl)(morpholino)methanone]
- IC50 [1]: < 1000 nM
- IC50 [3]: 1.92 nM

Compound: CS(=O)(=O)N1CC2(CN(C(=O)c3ccc(-c4ccc5nccc(Nc6ccc7scnc7c6)c5c4)c(F)c3)C2)C1 [Compound 316, (4-(4-(benzo[d]thiazol-5-ylamino)quinolin-6-yl)-3-fluorophenyl)(6-(methylsulfonyl)-2,6-diazaspiro[3.3]heptan-2-yl)methanone]
- IC50 [1]: 1580 nM
- IC50 [2]: 269 nM

Compound: O=C(c1ccc(-c2ccc3nccc(Nc4ccc5scnc5c4)c3c2)c(F)c1)N1CCC(O)CC1 [Compound 317, (4-(4-(benzo[d]thiazol-5-ylamino)quinolin-6-yl)-3-fluorophenyl)(4-hydroxypiperidin-1-yl)methanone]
- IC50 [1]: 707 nM
- IC50 [2]: 169 nM

Compound: CC1(O)CCN(C(=O)c2ccc(-c3ccc4nccc(Nc5ccc6scnc6c5)c4c3)c(F)c2)CC1 [Compound 318, (4-(4-(benzo[d]thiazol-5-ylamino)quinolin-6-yl)-3-fluorophenyl)(4-hydroxy-4-methylpiperidin-1-yl)methanone]
- IC50 [1]: 686 nM
- IC50 [2]: 53.7 nM

Compound: CC1(O)CCN(Cc2ccc(-c3ccc4nccc(Nc5ccc6scnc6c5)c4c3)c(F)c2)CC1 [Compound 319, 1-(4-(4-(benzo[d]thiazol-5-ylamino)quinolin-6-yl)-3-fluorobenzyl)-4-methylpiperidin-4-ol]
- IC50 [1]: 301 nM
- IC50 [2]: 284 nM

Compound: CNC(=O)CNCc1ccc(-c2ccc3nccc(Nc4ccc5scnc5c4)c3c2)c(F)c1 [Compound 320, 2-((4-(4-(benzo[d]thiazol-5-ylamino)quinolin-6-yl)-3-fluorobenzyl)amino)-N-methylacetamide]
- IC50 [1]: 444 nM
- IC50 [2]: 243 nM

Compound: COC1CCN(C(=O)c2ccc(-c3ccc4nccc(Nc5ccc6scnc6c5)c4c3)c(F)c2)CC1 [Compound 321, (4-(4-(benzo[d]thiazol-5-ylamino)quinolin-6-yl)-3-fluorophenyl)(4-methoxypiperidin-1-yl)methanone]
- IC50 [1]: 238 nM
- IC50 [2]: 109 nM

Compound: O=C(c1ccc(-c2cc3c(Nc4ccc5scnc5c4)ccnc3cc2F)c(F)c1)N1CCOCC1 [Compound 322, (4-(4-(benzo[d]thiazol-5-ylamino)-7-fluoroquinolin-6-yl)-3-fluorophenyl)(morpholino)methanone]
- IC50 [1]: 175 nM
- IC50 [2]: 111 nM

Compound: Fc1cc(CN2CC3(CNC3)C2)ccc1-c1ccc2c(Nc3ccc4scnc4c3)ccnc2c1 [Compound 323, N-(7-(4-((2,6-diazaspiro[3.3]heptan-2-yl)methyl)-2-fluorophenyl)quinolin-4-yl)benzo[d]thiazol-5-amine]
- IC50 [1]: 454 nM
- IC50 [2]: 296 nM

Compound: O=C(c1ccc(-c2ccc3nccc(Nc4ccc5scnc5c4)c3c2)c(F)c1)N1CC2(COC2)C1 [Compound 324, (4-(4-(benzo[d]thiazol-5-ylamino)quinolin-6-yl)-3-fluorophenyl)(2-oxa-6-azaspiro[3.3]heptan-6-yl)methanone]
- IC50 [1]: 223 nM
- IC50 [2]: 76.5 nM

Compound: O=C(NC1CCOCC1)c1ccc(-c2ccc3nccc(Nc4ccc5scnc5c4)c3c2)c(F)c1 [Compound 325, 4-(4-(benzo[d]thiazol-5-ylamino)quinolin-6-yl)-3-fluoro-N-(tetrahydro-2H-pyran-4-yl)benzamide]
- IC50 [1]: 665 nM
- IC50 [2]: 69.7 nM

Compound: O=C(c1ccc(-c2ccc3nccc(Nc4ccc5scnc5c4)c3c2)cn1)N1CCOCC1 [Compound 326, (5-(4-(benzo[d]thiazol-5-ylamino)quinolin-6-yl)pyridin-2-yl)(morpholino)methanone]
- IC50 [1]: 1790 nM
- IC50 [2]: 305 nM

Compound: CN1CCN(Cc2ccc(-c3ccc4c(Nc5ccc6scnc6c5)ccnc4c3)c(F)c2)CC1=O [Compound 327, 4-(4-(4-(benzo[d]thiazol-5-ylamino)quinolin-7-yl)-3-fluorobenzyl)-1-methylpiperazin-2-one]
- IC50 [1]: 160 nM
- IC50 [2]: 25.2 nM

Compound: CC(C)S(=O)(=O)c1ccc2nccc(Nc3ccc4scnc4c3)c2c1 [Compound A, N-(6-(isopropylsulfonyl)quinolin-4-yl)benzo[d]thiazol-5-amine, reference compound]
- IC50 [1]: 1960 nM
- IC50 [2]: 1260 nM
